Results published in ChEMBL document CHEMBL2069200, “Synthesis and evaluation of 4-(substituted styryl/alkenyl)-3,5-bis(4-hydroxyphenyl)-isoxazoles as ligands for the estrogen receptor” (Bioorg Med Chem Lett, 2012).

biological target: T1, Estrogen receptor (Homo sapiens) (UniProt P03372); assay: Displacement of [3H]-estradiol from human ERalpha LBD expressed in Escherichia coli assessed as relative binding affinity relative to estradiol
T1 sequence (whole entry): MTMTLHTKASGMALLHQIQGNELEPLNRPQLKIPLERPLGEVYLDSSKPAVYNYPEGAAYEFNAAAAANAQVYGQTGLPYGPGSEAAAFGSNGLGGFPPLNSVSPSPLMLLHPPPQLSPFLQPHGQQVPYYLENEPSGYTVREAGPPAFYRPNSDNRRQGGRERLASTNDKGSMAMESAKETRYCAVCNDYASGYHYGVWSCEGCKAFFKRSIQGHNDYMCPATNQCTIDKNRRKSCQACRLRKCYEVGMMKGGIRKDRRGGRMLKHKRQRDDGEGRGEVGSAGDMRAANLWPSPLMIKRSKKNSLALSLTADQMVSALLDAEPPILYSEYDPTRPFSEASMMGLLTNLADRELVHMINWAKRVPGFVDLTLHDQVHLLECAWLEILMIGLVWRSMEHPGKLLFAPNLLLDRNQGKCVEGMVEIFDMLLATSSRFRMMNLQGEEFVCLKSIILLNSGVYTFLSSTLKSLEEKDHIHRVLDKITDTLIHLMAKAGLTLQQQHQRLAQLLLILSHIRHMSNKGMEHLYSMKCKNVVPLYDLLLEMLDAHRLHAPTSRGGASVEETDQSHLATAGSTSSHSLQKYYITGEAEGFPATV

Row | SMILES | RBA [%]
1 | Cc1ccc(/C=C/c2c(-c3ccc(O)cc3)noc2-c2ccc(O)cc2)cc1 | 0.6
2 | CCCCC/C=C/c1c(-c2ccc(O)cc2)noc1-c1ccc(O)cc1 | 1.8
3 | Oc1ccc(/C=C/c2c(-c3ccc(O)cc3)noc2-c2ccc(O)cc2)cc1 | 16.4
4 | CCCCCCC/C=C/c1c(-c2ccc(O)cc2)noc1-c1ccc(O)cc1 | 1.3
5 | CCCCCC/C=C/c1c(-c2ccc(O)cc2)noc1-c1ccc(O)cc1 | 2.5
6 | Oc1ccc(-c2noc(-c3ccc(O)cc3)c2/C=C/c2ccc(Cl)cc2)cc1 | 0.8
7 | CCc1c(-c2ccc(O)cc2)nn(-c2ccc(O)cc2)c1-c1ccc(O)cc1 | 36
8 | Oc1ccc(-c2noc(-c3ccc(O)cc3)c2-c2ccc(O)cc2)cc1 | 30
9 | Oc1ccc(-c2noc(-c3ccc(O)cc3)c2/C=C/c2ccccc2)cc1 | 3.5
10 | Oc1ccc(-c2noc(-c3ccc(O)cc3)c2/C=C\c2ccccc2)cc1 | 8.7
11 | Oc1ccc(-c2noc(-c3ccc(O)cc3)c2/C=C/c2cccc(C(F)(F)F)c2)cc1 | 1.5
12 | Oc1ccc(-c2noc(-c3ccc(O)cc3)c2/C=C/c2ccc(F)cc2)cc1 | 3.1
13 | Oc1ccc(-c2noc(-c3ccc(O)cc3)c2/C=C/c2ccc(C(F)(F)F)cc2)cc1 | 5.3
14 | CC(C)(C)/C=C/c1c(-c2ccc(O)cc2)noc1-c1ccc(O)cc1 | 4.3
15 | Oc1ccc(-c2noc(-c3ccc(O)cc3)c2/C=C/c2cccc(O)c2)cc1 | 8.7
